This note sets out measurements from patent publication US10849864B2, “Combinations and methods for the treatment and/or prevention of fungal infections” (Novan, Inc., priority 2015, dated 2020).

Counter-ions that a name gives are not always drawn.

The test system of the test is Tricophyton rubrum (ATCC #28188). As to the kind of experiment: MIC evaluation of individual test materials (Macrodilution Broth Method, Phase I). In kind it is cell-based. The note with it: Trichophyton rubrum, ATCC28188; test material alone; T. rubrum inoculum 1.775 × 10^3 CFU/mL per tube; read-out: Minimum Inhibitory Concentration (MIC) (as product concentration). The method, then: The purpose of this study was to evaluate the synergistic in vitro interactions of one drug pair when challenged with Tricophyton rubrum (ATCC #28188).
A minimum inhibitory concentration (MIC) evaluation was performed for each test material versus T. rubrum using modifications of the Macrodilution Broth Method outlined in the CLSI (clinical laboratory standards institute) Document M07-A9: Methods for dilution antimicrobial susceptibility tests for bacteria that grow aerobically, 9th edition. The test materials were terbinafine hydrochloride and Nitricil™ NVN1, which is a NO-releasing diazeniumdiolate-functionalized co-condensed silica from Novan, Inc.
The challenge strain of T. rubrum was exposed to a series of doubling dilutions of each test material. […]
An initial population of T. rubrum was prepared containing approximately 10^3 CFU (colony forming units)/mL in appropriate fungal growth media (RPMI). This initial population density was precisely determined by preparing ten-fold dilutions and plating them on the appropriate solid fungal growth media for colony enumeration. […] Following incubation, the colonies were manually counted to determine the precise number of colonies present in the initial population. […]
The tubes were visually assessed on the basis of turbidity in order to determine fungal growth.

As for `CN(C/C=C/C#CC(C)(C)C)Cc1cccc2ccccc12` [Terbinafine hydrochloride, terbinafine hydrochloride], the MIC amounted to 0.012 µg/mL.
